{
  "source": "patent EP0185020B1",
  "about": "“NI[…] PREPARATION THEREOF AND UTILIZATION THEREOF IN ANTICANCEROUS CHEMIOTHERAPY” (CENTRE NATIONAL DE LA RECHERCHE SCIENTIFIQUE (CNRS), priority 1984, dated 1985)",
  "key": {"[1]": {"system": "leucémie L 1210 greffée i.p.", "assay": "Antitumour activity on L1210 leukaemia grafted i.p. in mice, A1 and A2 injected separately (ICIG, Example 12)", "type": "in vivo, souris B6D2F1/OLA", "details": "for activité antitumorale sur la leucémie L 1210, in words: each isomer given separately i.v.; for T/C × 100: i.v.", "excerpt": "Au jour J: 0, des souris mâles B6D2F1 âgées de trois mois reçoivent par voie intrapéritonéale 10^5 cellules de la souche leucémique L 1210. Les animaux sont répartis en lots de 8 à 10 animaux pour les groupes témoins et de 6 à 8 animaux pour les groupes traités. Aux jours J : 1, J : 5, J : 9, les animaux reçoivent par voie intrapéritonéale ou intraveineuse le traitement à différentes doses. La CNCC est administrée en suspension dans l'huile d'olive. Les produits selon l'invention sont administrés dans du sérum physiologique. La mortalité est enregistrée tous les jours. La médiane de survie des animaux traités et des animaux témoins a été déterminée. Les résultats sont considérés comme positifs lorsque l'index I = [formula] est supérieur à 125.\nLa valeur ∞ signifie que 50 à 100% des animaux sont survivants au jour J : 90.\nL'activité cytostatique sur la leucémie L 1210 de A, et A2 a été évaluée à l'ICIG chez des souris B6D2F1/OLA.\nII a en outre été procédé à l'ICIG à une étude de l'activité antitumorale sur la leucémie L 1210 de chaque isomère A, et AZ administré séparément par voie intraveineuse. Les résultats sont rassemblés sur le tableau IV. […] La comparaison des doses actives à celles de la CNCC est impossible pour les raisons d'insolubilité de la CNCC énoncées précédemment."}, "[2]": {"system": "M 555 ovarienne (implanté en sous-cutané)", "parameters": "key: N.S.: Non significatif; ∞: 50% en plus des animaux traités sont guéris", "details": "M 555 ovarienne s.c., jours 1,5,9, cited from earlier work"}, "[3]": {"system": "Fibrosarcome I.C.I.G. C1 (implanté en sous-cutané)", "parameters": "key: N.S.: Non significatif; ∞: 50% en plus des animaux traités sont guéris", "details": "jours 1,5,9, cited from earlier work"}, "[4]": {"system": "Carcinome pulmonaire de Lewis (implanté en sous-cutané)", "parameters": "key: N.S.: Non significatif; ∞: 50% en plus des animaux traités sont guéris", "details": "jours 1,5,9, cited from earlier work"}, "[5]": {"system": "Adénocarcinome mammaire TM2 (implanté en sous-cutané)", "parameters": "key: N.S.: Non significatif; ∞: 50% en plus des animaux traités sont guéris", "details": "jours 1,5,9, cited from earlier work"}, "[6]": {"system": "Mélano-carcinome B 16 (implanté en sous-cutané)", "parameters": "key: N.S.: Non significatif; ∞: 50% en plus des animaux traités sont guéris", "details": "Mélano-carcinome B 16 s.c., jours 1,5,9, cited from earlier work"}, "[7]": {"system": "Gliome 26 (implanté en sous-cutané)", "parameters": "key: N.S.: Non significatif; ∞: 50% en plus des animaux traités sont guéris", "details": "Gliome 26 s.c., jours 1,5,9, cited from earlier work"}, "[8]": {"system": "Carcinome du côlon (côlon 26) (implanté en sous-cutané)", "parameters": "key: N.S.: Non significatif; ∞: 50% en plus des animaux traités sont guéris", "details": "Carcinome du côlon (côlon 26) s.c., jours 1,5,9, cited from earlier work"}, "[9]": {"system": "Leucémie L 1210 (greffée par voie i.c.)", "parameters": "key: N.S.: Non significatif; ∞: 50% en plus des animaux traités sont guéris", "details": "Leucémie L 1210 i.c., jours 1,5,9, cited from earlier work"}},
  "note": "Where two headings read alike, the source gives them in different places.",
  "data": [
    {"smiles": "C[S+]([O-])CCN(N=O)C(=O)NCCCl", "note": "(stereo not drawn) [A1]", "values": [
      {"measurement": "activité antitumorale sur la leucémie L 1210, in words", "setting": "[1]", "value": "faible activité"},
      {"measurement": "T/C × 100", "setting": "[1]; 5 mg/kg", "value": 100},
      {"measurement": "T/C × 100", "setting": "[1]; 10 mg/kg", "value": 100},
      {"measurement": "T/C × 100", "setting": "[1]; 20 mg/kg", "value": 133},
      {"measurement": "T/C × 100", "setting": "[1]; 30 mg/kg", "value": 133},
      {"measurement": "T/C × 100", "setting": "[1]; 40 mg/kg", "value": 158},
      {"measurement": "T/C × 100", "setting": "[1]; 50 mg/kg", "value": 158},
      {"measurement": "T/C × 100", "setting": "[1]; 60 mg/kg", "value": "Toxique"}
    ]},
    {"smiles": "C[S+]([O-])CCNC(=O)N(CCCl)N=O", "note": "(stereo not drawn) [A2]", "values": [
      {"measurement": "activité antitumorale sur la leucémie L 1210, in words", "setting": "[1]", "value": "forte activité"},
      {"measurement": "T/C × 100", "setting": "[1]; 1 mg/kg", "value": 100},
      {"measurement": "T/C × 100", "setting": "[1]; 5 mg/kg", "value": "∞ (La valeur ∞ signifie que 50 à 100% des animaux sont survivants au jour J : 90)"},
      {"measurement": "T/C × 100", "setting": "[1]; 10 mg/kg", "value": "∞ (La valeur ∞ signifie que 50 à 100% des animaux sont survivants au jour J : 90)"},
      {"measurement": "T/C × 100", "setting": "[1]; 20 mg/kg", "value": 63},
      {"measurement": "T/C × 100", "setting": "[1]; 30 mg/kg", "value": 63},
      {"measurement": "T/C × 100", "setting": "[1]; 40 mg/kg", "value": 63}
    ]},
    {"smiles": "O=NN(CCCl)C(=O)N[C@H]1C(O)O[C@H](CO)[C@@H](O)[C@@H]1O", "note": "(stereo partly drawn) [CHLOROZOTOCINE]", "values": [
      {"measurement": "Augmentation de la durée de survie (I.L.S.: T/C×100)", "setting": "[2]; 15 mg/kg I.P.", "value": "∞ (50% en plus des animaux traités sont guéris)"},
      {"measurement": "Augmentation de la durée de survie (I.L.S.: T/C×100)", "setting": "[3]; 15 mg/kg I.P.", "value": "∞ (50% en plus des animaux traités sont guéris)"},
      {"measurement": "Augmentation de la durée de survie (I.L.S.: T/C×100)", "setting": "[4]; 15 mg/kg I.P.", "value": "N.S."},
      {"measurement": "Augmentation de la durée de survie (I.L.S.: T/C×100)", "setting": "[5]; 15 mg/kg I.P.", "value": "N.S."},
      {"measurement": "Augmentation de la durée de survie (I.L.S.: T/C×100)", "setting": "[6]; 15 mg/kg I.P.", "value": "N.S."},
      {"measurement": "Augmentation de la durée de survie (I.L.S.: T/C×100)", "setting": "[7]; 15 mg/kg I.P.", "value": "N.S."},
      {"measurement": "Augmentation de la durée de survie (I.L.S.: T/C×100)", "setting": "[8]; 15 mg/kg I.P.", "value": "∞ (50% en plus des animaux traités sont guéris)"},
      {"measurement": "Augmentation de la durée de survie (I.L.S.: T/C×100)", "setting": "[9]; 15 mg/kg I.P.", "value": "N.S."}
    ]},
    {"smiles": "O=NN(CCCl)C(=O)NCCO", "note": "[HECNU]", "values": [
      {"measurement": "Augmentation de la durée de survie (I.L.S.: T/C×100)", "setting": "[2]; 10 mg/kg I.P.", "value": 210},
      {"measurement": "Augmentation de la durée de survie (I.L.S.: T/C×100)", "setting": "[3]; 10 mg/kg I.P.", "value": "N.S."},
      {"measurement": "Augmentation de la durée de survie (I.L.S.: T/C×100)", "setting": "[4]; 10 mg/kg I.P.", "value": "∞ (50% en plus des animaux traités sont guéris)"},
      {"measurement": "Augmentation de la durée de survie (I.L.S.: T/C×100)", "setting": "[5]; 10 mg/kg I.P.", "value": 165},
      {"measurement": "Augmentation de la durée de survie (I.L.S.: T/C×100)", "setting": "[6]; 10 mg/kg I.P.", "value": 198},
      {"measurement": "Augmentation de la durée de survie (I.L.S.: T/C×100)", "setting": "[7]; 10 mg/kg I.P.", "value": 182},
      {"measurement": "Augmentation de la durée de survie (I.L.S.: T/C×100)", "setting": "[8]; 10 mg/kg I.P.", "value": "∞ (50% en plus des animaux traités sont guéris)"},
      {"measurement": "Augmentation de la durée de survie (I.L.S.: T/C×100)", "setting": "[9]; 10 mg/kg I.P.", "value": "∞ (50% en plus des animaux traités sont guéris)"}
    ]},
    {"smiles": "CC1(C)O[C@@H]2[C@@H](COC(=O)c3ccc([N+](=O)[O-])cc3)OC(NC(=O)N(CCCl)N=O)[C@@H]2O1", "note": "(stereo partly drawn) [RFCNU]", "values": [
      {"measurement": "Augmentation de la durée de survie (I.L.S.: T/C×100)", "setting": "[2]; 20 mg/kg I.P.", "value": "N.S."},
      {"measurement": "Augmentation de la durée de survie (I.L.S.: T/C×100)", "setting": "[3]; 20 mg/kg I.P.", "value": "∞ (50% en plus des animaux traités sont guéris)"},
      {"measurement": "Augmentation de la durée de survie (I.L.S.: T/C×100)", "setting": "[4]; 20 mg/kg I.P.", "value": "N.S."},
      {"measurement": "Augmentation de la durée de survie (I.L.S.: T/C×100)", "setting": "[5]; 20 mg/kg I.P.", "value": "N.S."},
      {"measurement": "Augmentation de la durée de survie (I.L.S.: T/C×100)", "setting": "[6]; 20 mg/kg I.P.", "value": 144},
      {"measurement": "Augmentation de la durée de survie (I.L.S.: T/C×100)", "setting": "[7]; 20 mg/kg I.P.", "value": "N.S."},
      {"measurement": "Augmentation de la durée de survie (I.L.S.: T/C×100)", "setting": "[8]; 20 mg/kg I.P.", "value": "N.S."},
      {"measurement": "Augmentation de la durée de survie (I.L.S.: T/C×100)", "setting": "[9]; 20 mg/kg I.P.", "value": 167}
    ]}
  ]
}
